Tests used:
Format in all cases: in vivo
[1] = test system: Botrytis cinerea; test: Test C: preventive spray on tomato seedlings, gray mold, visual disease rating; conditions: for pest or weed control at 250 ppm: Botrytis cinerea
Method in brief: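 Tomato seedlings received a run-off spray, typically 250 ppm (or stated rate), ahead of gray mold inoculation and visual scoring. Test suspensions: acetone stock (3% of volume) diluted into 1:1 acetone/water containing PEG400.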

[2] = test system: Zymoseptoria tritici; test: Test E: preventive spray on wheat seedlings, wheat leaf blotch, visual disease rating; conditions: for pest or weed control at 250 ppm: Zymoseptoria tritici
Method in brief: (§1)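 Preventive foliar spray of wheat seedlings to run-off, at 250 ppm or other indicated rate. Compounds dissolved in acetone (3% of final volume), suspended in 50/50 acetone–water with PEG400 surfactant. Disease rated visually.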

[3] = test system: Phytophthora infestans; test: whole plant or invertebrate; conditions: for Test D disease control rating: tomato seedlings; for pest or weed control at 250 ppm: Phytophthora infestans, in Solanum lycopersicum, read-out: Test D disease control rating
[4] = test system: Plasmopara viticola; test: Test B: preventive spray on grape seedlings, grape downy mildew, disease rating
Source text: General protocol for preparing test solutions for Tests AG: the test compounds were first dissolved in acetone in an amount equal to 3% of the final volume and then suspended at the desired concentration (in ppm) in acetone and purified water (50/50 mix by volume) containing the surfactant PEG400 (polyhydric alcohol esters). The resulting test suspensions were then used in Tests AG. Compounds were sprayed at a concentration of 250 ppm or other indicated rate to the point of run-off on the test plants. The test solution was sprayed to the point of run-off on grape seedlings. […] A dash (-) indicates no test results.

[5] = test system: Puccinia recondita f. sp. tritici; test: Test F: preventive spray on wheat seedlings, wheat leaf rust, visual disease rating; conditions: for pest or weed control at 250 ppm: Puccinia recondita
Method in brief: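 Preventive test: wheat seedlings were sprayed to run-off with compound suspended in acetone/water 50/50 plus PEG400 (250 ppm or other indicated rate). One day later they received Puccinia recondita f. sp. tritici spores, and disease was scored visually.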

[6] = test system: Erysiphe graminis f. sp. tritici; test: Test G: preventive spray on wheat seedlings, wheat powdery mildew, visual disease rating; conditions: for pest or weed control at 250 ppm: Blumeria graminis, 192 h
Method in brief: as §1

[7] = 250 ppm, 100 = 100% disease control, 0 = no control

SMILES | Test C disease control rating [1, 7] | Test E disease control rating [2, 7] | Test D disease control rating [3, 7] | Test B disease control rating [4, 7] | Test F disease control rating [5, 7] | Test G disease control rating [6, 7] | further results
Cc1nnc(NC(=O)c2c(O)cnn(C)c2=O)s1 [Compound 13] | 0% | 0% | 0% | 65% | 0% | 0% | 
Cn1ncc(O)c(C(=O)Nc2ccc(OC(F)(F)F)cc2)c1=O [Compound 21, 2,3-Dihydro-5-hydroxy-2-methyl-3-oxo-N-[4-(trifluoromethoxy)phenyl]-4-pyridazinecarboxamide] |  |  |  | 93% |  |  | pest or weed control at 250 ppm [1, 7]: 0%; pest or weed control at 250 ppm [2, 7]: 98%; pest or weed control at 250 ppm [3]: 97%; pest or weed control at 250 ppm [5, 7]: 99%; pest or weed control at 250 ppm [6, 7]: 98%
Cn1nc(-c2ccccc2)c(O)c(C(=O)Nc2ccccc2C(F)(F)F)c1=O [Compound 26] | 0% | 0% | 58% | 49% | 68% | 84% | 
Cn1ncc(O)c(C(=O)Nc2ccc(Cl)cc2Cl)c1=O [Compound 37] | 0% | 51% | 95% | 86% | 94% | 76% | 
Cn1ncc(O)c(C(=O)Nc2ncc(Cl)cn2)c1=O [Compound 38] | 0% | 0% | 0% | 20% | 68% | 0% | 
Cn1ncc(O)c(C(=O)NC2CCCCC2)c1=O [Compound 39] | 0% | 0% | 0% | 70% | 0% | 69% | 
Cn1ncc(O)c(C(=O)Nc2ncccc2Cl)c1=O [Compound 45] | 99% | 0% | 94% | 88% | 98% | 0% | 
CC(=O)Oc1cnn(C)c(=O)c1C(=O)N(C(C)=O)c1ccc(OC(F)(F)F)cc1 [Compound 84] |  |  |  |  |  |  | Test C disease control rating ([1]; 280 ppm): 0%; Test E disease control rating ([2]; 280 ppm): 100%; Test D disease control rating ([3]; 280 ppm): 100%; Test B disease control rating ([4]; 280 ppm): 99%; Test F disease control rating ([5]; 280 ppm): 100%; Test G disease control rating ([6]; 280 ppm): 99%
COC(=O)N(C(=O)c1c(OC(C)=O)cnn(C)c1=O)c1ccc(OC(F)(F)F)cc1 [Compound 88] |  |  |  |  |  |  | Test C disease control rating ([1]; 50 ppm): 0%; Test E disease control rating ([2]; 50 ppm): 32%; Test D disease control rating ([3]; 50 ppm): 57%; Test B disease control rating ([4]; 50 ppm): 91%; Test F disease control rating ([5]; 50 ppm): 83%; Test G disease control rating ([6]; 50 ppm): 89%
Cn1ncc2oc(=O)n(-c3ccc(OC(F)(F)F)cc3)c(=O)c2c1=O [Compound 89, 6-Methyl-3-[4-(trifluoromethoxy)phenyl]-2H-pyridazino[4,5-e]-1,3-oxazine-2,4,5(3H,6H)-trione] |  |  |  | 99% |  |  | pest or weed control at 250 ppm [1, 7]: 0%; pest or weed control at 250 ppm [2, 7]: 97%; pest or weed control at 250 ppm [3]: 67%; pest or weed control at 250 ppm [5, 7]: 99%; pest or weed control at 250 ppm [6, 7]: 61%
COc1ccc(NC(=O)c2c(O)cnn(C)c2=O)cc1 [Compound 92] | 99% | 59% | 68% | 92% | 89% | 35% | 
Cc1ccc(NC(=O)c2c(O)cnn(C)c2=O)cc1 [Compound 93] | 15% | 65% | 93% | 94% | 91% | 87% | 

Source: patent US20190133128A1, “Fungicidal pyridazinones” (FMC Corporation, priority 2017, published 2019)
